Results published in ChEMBL document CHEMBL4190299, “Design, Synthesis, and Cancer Cell Growth Inhibitory Activity of Triphenylphosphonium Derivatives of the Triterpenoid Betulin” (J Nat Prod, 2017).
pIC50: −log10 of the molar value. Calls of active or inactive are those of the source. The calls are words filed in the database; no cut-off is given here.

Key:
PC-3 [1] = experiment: Induction of mitochondrial membrane potential loss in human PC3 cells assessed as fluorescence intensity at cytotoxic IC50 after 48 hrs by TMRE dye-based fluorescence assay based flow cytometry (reference value: 210.8); assay type: functional
PC-3 [2] = experiment: Induction of cell cycle arrest in human PC3 cells assessed as effect on G0/G1 phase at cytotoxic IC50 after 48 hrs by propidium iodide staining based flow cytometry; assay type: functional
PC-3 [3] = experiment: Induction of cell cycle arrest in human PC3 cells assessed as effect on S phase at cytotoxic IC50 after 48 hrs by propidium iodide staining based flow cytometry; assay type: functional
PC-3 [4] = experiment: Induction of cell cycle arrest in human PC3 cells assessed as effect on G2/M phase at cytotoxic IC50 after 48 hrs by propidium iodide staining based flow cytometry; assay type: functional
MCF7 = experiment: cells; conditions: Homo sapiens, MCF7, 72 h
Description: Cytotoxicity against human MCF7 cells assessed as reduction in cell viability after 72 hrs by MTT assay

PC-3 [5] = experiment: Cytotoxicity against human PC3 cells assessed as reduction in cell viability after 72 hrs by MTT assay; assay type: functional, cell-based; conditions: PC-3, 72 h
[6] = Cytotoxicity against human HSF cells assessed as reduction in cell viability after 72 hrs by MTT assay; assay type: cell-based
PC-3 [7] = experiment: Induction of mitochondrial membrane potential loss in human PC3 cells assessed as fluorescence intensity at cytotoxic IC50 after 48 hrs by TMRE dye-based fluorescence assay based flow cytometry relative to untreated control; assay type: functional

Row | Structure (SMILES) | Flu intensity (PC-3 [1]) | Activity (PC-3 [2]) | Activity (PC-3 [3]) | Activity (PC-3 [4]) | pIC50 (MCF7) | pIC50 (PC-3 [5]) | pIC50 [6] | fold change (FC) (PC-3 [7]) | Activity (PC-3 [7]) [%]
1 | C=C(C)[C@@H]1CC[C@]2(CO)CC[C@]3(C)[C@H](CC[C@@H]4[C@@]5(C)CC[C@H](O)C(C)(C)[C@@H]5CC[C@]43C)[C@@H]12 [BETULIN] | 205.9 | inactive | inactive | inactive | – | – | – | – | –
2 | COc1cccc2c1C(=O)c1c(O)c3c(c(O)c1C2=O)C[C@@](O)(C(=O)CO)C[C@@H]3O[C@H]1C[C@H](N)[C@H](O)[C@H](C)O1 [DOXORUBICIN] | – | – | – | – | 6.82 | – | – | – | –
3 | C=C(C)[C@@H]1CC[C@]2(COC(=O)C[P+](c3ccccc3)(c3ccccc3)c3ccccc3)CC[C@]3(C)[C@H](CC[C@@H]4[C@@]5(C)CC[C@H](OC(=O)C[P+](c6ccccc6)(c6ccccc6)c6ccccc6)C(C)(C)[C@@H]5CC[C@]43C)[C@@H]12 | – | – | – | – | 5.06 | 5.16 | 5.25 | – | –
4 | C=C(C)[C@@H]1CC[C@]2(COC(=O)CCC[P+](c3ccccc3)(c3ccccc3)c3ccccc3)CC[C@]3(C)[C@H](CC[C@@H]4[C@@]5(C)CC[C@H](OC(=O)CCC[P+](c6ccccc6)(c6ccccc6)c6ccccc6)C(C)(C)[C@@H]5CC[C@]43C)[C@@H]12.[Br-].[Br-] | 90.1 | inactive | inactive | inactive | 6.46 | 6.27 | 6.07 | 2 | –
5 | CC[C@]1(O)C[C@@H]2CN(CCc3c([nH]c4ccccc34)[C@@](C(=O)OC)(c3cc4c(cc3OC)N(C)[C@H]3[C@@](O)(C(=O)OC)[C@H](OC(C)=O)[C@]5(CC)C=CCN6CC[C@]43[C@@H]65)C2)C1 [VINBLASTINE] | – | – | – | – | 6.30 | – | – | – | –
6 | C=C(C)[C@@H]1CC[C@]2(COC(=O)CCCC[P+](c3ccccc3)(c3ccccc3)c3ccccc3)CC[C@]3(C)[C@H](CC[C@@H]4[C@@]5(C)CC[C@H](O)C(C)(C)[C@@H]5CC[C@]43C)[C@@H]12.[Br-] | 186.6 | inactive | inactive | inactive | 6.15 | 6.92 | 5.82 | – | –
7 | C=C(C)[C@@H]1CC[C@]2(COC(=O)CCC[P+](c3ccccc3)(c3ccccc3)c3ccccc3)CC[C@]3(C)[C@H](CC[C@@H]4[C@@]5(C)CC[C@H](O)C(C)(C)[C@@H]5CC[C@]43C)[C@@H]12 | – | – | – | – | 6.37 | 6.80 | 5.68 | – | –
8 | C=C(C)[C@@H]1CC[C@]2(COC(=O)CCCC[P+](c3ccccc3)(c3ccccc3)c3ccccc3)CC[C@]3(C)[C@H](CC[C@@H]4[C@@]5(C)CC[C@H](OC(=O)CCCC[P+](c6ccccc6)(c6ccccc6)c6ccccc6)C(C)(C)[C@@H]5CC[C@]43C)[C@@H]12.[Br-].[Br-] | 112.2 | inactive | inactive | inactive | 6.32 | 6.33 | 6.12 | 2 | –
9 | C=C(C)[C@@H]1CC[C@]2(COC(=O)C[P+](c3ccccc3)(c3ccccc3)c3ccccc3)CC[C@]3(C)[C@H](CC[C@@H]4[C@@]5(C)CC[C@H](O)C(C)(C)[C@@H]5CC[C@]43C)[C@@H]12 | – | – | – | – | < 5.00 | 5.17 | 5.00 | – | –
10 | C=C(C)[C@@H]1CC[C@]2(COC(=O)CCCCBr)CC[C@]3(C)[C@H](CC[C@@H]4[C@@]5(C)CC[C@H](OC(=O)CCCCBr)C(C)(C)[C@@H]5CC[C@]43C)[C@@H]12 | 187.9 | inactive | inactive | inactive | – | – | – | – | 10
